pIC50: −log10 of the molar value. Calls of active or inactive are those of the source. The calls are words filed in the database; no cut-off is given here.
Key:
T-cell [1] = test: Immunomodulatory activity in concanavalin A stimulated BALB/c mouse T-lymphocyte co-cultured with mouse CT26 cells assessed as increase in T cell proliferation at 5 to 80 nM incubated for 48 hrs by flow cytometry; assay type: functional, cell-based; details: dose 5-80 nM
[2] = molecular target: Programmed cell death protein 1/Programmed cell death 1 ligand 1 (Homo sapiens, UniProt Q15116+Q9NZQ7); test: Inhibition of PD-1/PD-L1 (unknown origin) protein-protein interaction incubated for 105 mins by HTRF assay; assay type: protein-complex assay
T-cell [3] = test: Immunomodulatory activity in concanavalin A stimulated BALB/c mouse T-lymphocyte co-cultured with mouse CT26 cells overexpressing PD-L1 assessed as T cell proliferation at 20 nM incubated for 48 hrs by flow cytometry (reference value: 58.47 +/- 2.07%); assay type: functional
T-cell [4] = test: Immunomodulatory activity in concanavalin A stimulated BALB/c mouse T-lymphocyte co-cultured with mouse CT26 cells overexpressing PD-L1 assessed as increase in T cell proliferation at 5 to 80 nM incubated for 48 hrs by flow cytometry; assay type: functional, cell-based; details: dose 5-80 nM
[5] = Metabolic stability in human liver microsomes assessed as half life; assay type: ADME, Microsome
T-cell [6] = test: Immunomodulatory activity in concanavalin A stimulated BALB/c mouse T-lymphocyte co-cultured with mouse CT26 cells assessed as T cell proliferation at 20 nM incubated for 48 hrs by flow cytometry (reference value: 64.08 +/- 0.91%); assay type: functional
Lewis lung carcinoma [7] = test: Cytotoxicity against mouse Lewis lung carcinoma cell line assessed as cell growth inhibition at 0.25 to 4096 nM incubated for 48 hrs by MTT assay; assay type: functional, cell-based; details: dose 0.25-4096 nM
[8] = Metabolic stability in human liver microsomes assessed as intrinsic clearance; assay type: ADME, Microsome; details: read-out: CLH
[9] = (§1) Antitumor activity against mouse Lewis lung carcinoma cell line overexpressing PD-L1 implanted in C57 mouse model assessed as increase in infiltration of CD3 positive CD8 positive T cells in tumor by measuring necrotic cells at 20 mg/kg,ip administrated once every three days for 19 days by flow cytometry analysis (reference value: 5.17%); assay type: functional; details: time 19 day
[10] = Metabolic stability in rat liver microsomes assessed as half life; assay type: ADME, Microsome
[11] = as §1, with “viable” for “necrotic”, “84.51%)” for “5.17%)”; assay type: functional; details: time 19 day
CT26 [12] = test: Cytotoxicity against mouse CT26 cells overexpressing PD-L1 assessed as cell growth inhibition at 0.25 to 4096 nM incubated for 48 hrs by MTT assay; assay type: functional, cell-based; details: dose 0.25-4096 nM
[13] = Toxicity in C57 mouse implanted with mouse Lewis lung carcinoma cell line overexpressing PD-L1 assessed as effect on heart viscera index at 20 mg/kg,ip administrated once every three days for 19 days; assay type: organism-based; details: in vivo, 456 h, time 19 day
T-cell [14] = test: Immunomodulatory activity in concanavalin A stimulated BALB/c mouse T-lymphocyte co-cultured with mouse CT26 cells overexpressing PD-L1 assessed as increase in proportion of CD3 positive CD8 positive T cells at 20 nM incubated for 48 hrs by flow cytometry (reference value: 15.01%); assay type: functional
[15] = Metabolic stability in rat liver microsomes assessed as intrinsic clearance; assay type: ADME, Microsome; details: read-out: CLH
[16] = as §1, with “CD4” for “CD8”, “early apoptotic” for “necrotic”, “2.24%)” for “5.17%)”; assay type: functional; details: time 19 day
[17] = as §1, with “CD4” for “CD8”, “viable” for “necrotic”, “83.97%)” for “5.17%)”; assay type: functional; details: time 19 day
[18] = Antitumor activity against mouse Lewis lung carcinoma cell line overexpressing PD-L1 implanted in C57 mouse model assessed as increase in CD8 positive IFN-gamma positive T cells in tumor at 20 mg/kg,ip administrated once every three days for 19 days by flow cytometry analysis (Rvb =20.66%); assay type: functional; details: time 19 day
[19] = Toxicity in C57 mouse implanted with mouse Lewis lung carcinoma cell line overexpressing PD-L1 assessed as reduction in body weight at 20 mg/kg,ip administrated once every three days for 19 days; assay type: organism-based; details: in vivo, 456 h, time 19 day
Lewis lung carcinoma [20] = test: Antitumor immunity against mouse Lewis lung carcinoma cell line overexpressing PD-L1 co-cultured with concanavalin A stimulated BALB/c mouse spleen T cell assessed as increase in T cell infiltration into tumor matrix at 20 nM incubated for 48 to 72 hrs by fluorescence microscopy; assay type: functional, cell-based; details: time 48-72 hrs
[21] = as §1, with “early apoptotic” for “necrotic”, “1.32%)” for “5.17%)”; assay type: functional; details: time 19 day
[22] = Antitumor activity against mouse Lewis lung carcinoma cell line overexpressing PD-L1 implanted in C57 mouse model assessed as tumor growth inhibition at 20 mg/kg,ip administrated once every three days for 19 days; assay type: functional; details: 456 h, time 19 day, read-out: TGI
[23] = Toxicity in C57 mouse implanted with mouse Lewis lung carcinoma cell line overexpressing PD-L1 assessed as effect on kidney viscera index at 20 mg/kg,ip administrated once every three days for 19 days; assay type: organism-based; details: in vivo, 456 h, time 19 day
[24] = as §1, with “CD4” for “CD8”, “1.72%)” for “5.17%)”; assay type: functional; details: time 19 day
Lewis lung carcinoma [25] = test: Antitumor immunity against mouse Lewis lung carcinoma cell line overexpressing PD-L1 co-cultured with concanavalin A stimulated BALB/c mouse spleen T cell assessed as increase in T cell infiltration into tumor matrix at 80 nM incubated for 48 to 72 hrs by fluorescence microscopy; assay type: functional, cell-based; details: time 48-72 hrs
[26] = Antitumor activity against mouse Lewis lung carcinoma cell line overexpressing PD-L1 implanted in C57 mouse model assessed as increase in CD8 positive GzmB positive T cells in tumor at 20 mg/kg,ip administrated once every three days for 19 days by flow cytometry analysis (reference value: 9.11%); assay type: functional; details: time 19 day
[27] = as §1, with “CD4” for “CD8”, “late apoptotic” for “necrotic”, “12.07%)” for “5.17%)”; assay type: functional; details: time 19 day
[28] = Toxicity in C57 mouse implanted with mouse Lewis lung carcinoma cell line overexpressing PD-L1 assessed as effect on spleen viscera index at 20 mg/kg,ip administrated once every three days for 19 days; assay type: organism-based; details: in vivo, 456 h, time 19 day
[29] = as §1, with “late apoptotic” for “necrotic”, “9%)” for “5.17%)”; assay type: functional; details: time 19 day
T-cell [30] = test: Immunomodulatory activity in concanavalin A stimulated BALB/c mouse T-lymphocyte co-cultured with mouse CT26 cells overexpressing PD-L1 assessed as increase in proportion of CD3 positive CD69 positive T cells at 20 nM incubated for 48 hrs by flow cytometry (reference value: 39.97%); assay type: functional
T-cell [31] = test: Immunomodulatory activity in concanavalin A stimulated BALB/c mouse T-lymphocyte co-cultured with mouse CT26 cells overexpressing PD-L1 assessed as increase in proportion of CD3 positive CD8 positive T cells at 80 nM incubated for 48 hrs by flow cytometry (reference value: 14.38%); assay type: functional
T-cell [32] = test: Immunomodulatory activity in concanavalin A stimulated BALB/c mouse T-lymphocyte co-cultured with mouse CT26 cells overexpressing PD-L1 assessed as increase in proportion of CD3 positive CD69 positive T cells at 80 nM incubated for 48 hrs by flow cytometry (reference value: 41.22%); assay type: functional
Lewis lung carcinoma [33] = test: Cytotoxicity against mouse Lewis lung carcinoma cell line overexpressing PD-L1 assessed as cell growth inhibition at 0.25 to 4096 nM incubated for 48 hrs by MTT assay; assay type: functional, cell-based; details: dose 0.25-4096 nM
[34] = Toxicity in C57 mouse implanted with mouse Lewis lung carcinoma cell line overexpressing PD-L1 assessed as effect on lung viscera index at 20 mg/kg,ip administrated once every three days for 19 days; assay type: organism-based; details: in vivo, 456 h, time 19 day
[35] = Toxicity in C57 mouse implanted with mouse Lewis lung carcinoma cell line overexpressing PD-L1 assessed as effect on liver viscera index at 20 mg/kg,ip administrated once every three days for 19 days; assay type: organism-based; details: in vivo, 456 h, time 19 day
CT26 [36] = test: Cytotoxicity against mouse CT26 cells assessed as cell growth inhibition at 0.25 to 4096 nM incubated for 48 hrs by MTT assay; assay type: functional, cell-based; details: dose 0.25-4096 nM

Chain of Programmed cell death protein 1/Programmed cell death 1 ligand 1 (Q15116 whole entry): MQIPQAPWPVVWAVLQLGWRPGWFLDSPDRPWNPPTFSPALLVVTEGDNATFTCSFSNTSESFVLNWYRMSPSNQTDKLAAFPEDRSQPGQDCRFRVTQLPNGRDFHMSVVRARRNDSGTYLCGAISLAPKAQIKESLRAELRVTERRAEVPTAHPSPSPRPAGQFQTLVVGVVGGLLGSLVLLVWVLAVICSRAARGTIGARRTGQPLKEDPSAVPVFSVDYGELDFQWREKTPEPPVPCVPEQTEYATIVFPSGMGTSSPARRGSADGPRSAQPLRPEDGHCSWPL
Chain of Programmed cell death protein 1/Programmed cell death 1 ligand 1 (Q9NZQ7 whole entry): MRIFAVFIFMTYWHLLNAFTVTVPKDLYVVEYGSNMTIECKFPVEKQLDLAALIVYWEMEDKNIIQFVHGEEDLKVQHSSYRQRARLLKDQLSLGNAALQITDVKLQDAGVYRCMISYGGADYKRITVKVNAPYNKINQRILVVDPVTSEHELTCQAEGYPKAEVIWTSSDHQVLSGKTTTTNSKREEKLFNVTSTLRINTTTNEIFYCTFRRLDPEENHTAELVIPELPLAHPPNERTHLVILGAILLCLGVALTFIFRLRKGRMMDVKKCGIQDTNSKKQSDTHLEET

OCCNCc1cnc2c(N3CCc4c(-c5ccccc5)cccc43)ncnc2c1
Activity (T-cell [1]): Active
pIC50 [2]: 8.17
Activity (T-cell [3]): 60.06%
Activity (T-cell [4]): Active
half-life [5]: 3.47 h
Activity (T-cell [6]): 59.22%

O=C(O)[C@H]1CCCCN1Cc1cnc2c(N3CCc4c(-c5ccccc5)cccc43)ncnc2c1
pIC50 [2]: 7.21

CC(C)(CO)NCc1cnc2c(N3CCc4c(-c5ccc6c(c5)OCCO6)cccc43)ncnc2c1
pIC50 [2]: 7.85

NS(=O)(=O)NCCNCc1cnc2c(N3CCc4c(-c5ccc6c(c5)OCCO6)cccc43)ncnc2c1
pIC50 [2]: 7.50

CC(=O)NCCNCc1ccc2c(N3CCc4c(-c5ccccc5)cccc43)ncnc2c1
pIC50 [2]: 6.90

O=C(O)[C@H]1CCN(Cc2cnc3c(N4CCc5c(-c6ccccc6)cccc54)ncnc3c2)C1
Activity (T-cell [1]): Active
pIC50 [2]: 8.09
Activity (T-cell [3]): 52.78%
Activity (T-cell [4]): Active
Activity (T-cell [6]): 54.44%

OC[C@H]1CCN(Cc2cnc3c(N4CCc5c(-c6ccccc6)cccc54)ncnc3c2)C1
pIC50 [2]: 7.67

OC[C@@H]1CCN(Cc2cnc3c(N4CCc5c(-c6ccccc6)cccc54)ncnc3c2)C1
pIC50 [2]: 7.80

OCCNCc1ccc2c(N3CCc4c(-c5ccccc5)cccc43)ncnc2c1
pIC50 [2]: 7.36

c1ccc(-c2cccc3c2CCN3c2ncnc3cc(CNC4CCOCC4)cnc23)cc1
pIC50 [2]: 7.67
half-life [5]: 1.51 h

CC(C)(CO)NCc1cnc2c(N3CCc4c(-c5ccccc5)cccc43)ncnc2c1
Activity (Lewis lung carcinoma [7]): inactive
microsomal CLint [8]: 6.9 µL/min/mg
Activity (T-cell [1]): Active
Activity [9]: 2.4%
half-life [10]: 2.64 h
Activity [11]: 75.06%
Activity (CT26 [12]): inactive
Activity [13]: Non-Toxic
Activity (T-cell [14]): 23.79%
microsomal CLint [15]: 8.8 µL/min/mg
Activity [16]: 3.13%
pIC50 [2]: 8.20
Activity [17]: 73.8%
Activity (T-cell [3]): 62.69%
Activity (T-cell [4]): Active
Activity [18]: 31.1%
Activity [19]: Toxic
Activity (Lewis lung carcinoma [20]): Active
Activity [21]: 4.77%
inhibition in vivo at 20 mg/kg [22]: 61.9%
Activity [23]: Non-Toxic
Activity [24]: 0.78%
Activity (Lewis lung carcinoma [25]): Active
Activity [26]: 21.13%
half-life [5]: 3.34 h
Activity [27]: 22.29%
Activity (T-cell [6]): 54.61%
Activity [28]: Non-Toxic
Activity [29]: 17.77%
Activity (T-cell [30]): 56.41%
Activity (T-cell [31]): 26.32%
Activity (T-cell [32]): 61.21%
Activity (Lewis lung carcinoma [33]): inactive
Activity [34]: Toxic
Activity [35]: Non-Toxic
Activity (CT26 [36]): inactive

CC(=O)NCCNCc1cnc2c(N3CCc4c(-c5ccccc5)cccc43)nccc2c1
pIC50 [2]: 7.07

COCCNCc1cnc2c(N3CCc4c(-c5ccccc5)cccc43)ncnc2c1
pIC50 [2]: 7.63

O[C@H]1CCN(Cc2cnc3c(N4CCc5c(-c6ccccc6)cccc54)ncnc3c2)C1
pIC50 [2]: 7.76

O=C(O)[C@H]1CCCN1Cc1cnc2c(N3CCc4c(-c5ccccc5)cccc43)ncnc2c1
pIC50 [2]: 7.64

c1ccc(-c2cccc3c2CCN3c2nccc3cc(CNC4CCOCC4)cnc23)cc1
pIC50 [2]: 6.89
